Test results from US20220370453A1 (Storm Therapeutics Ltd, priority 2019, published 2022).

Columns and labels:
BCDIN3D [1] = biological target: T1, BCDIN3D (Homo sapiens, UniProt Q7Z5W3); experiment: BCDIN3D IC50 RFMS (RapidFire) assay with mini-helix; type: biochemical; conditions: mini-helix substrate 0.2 μM, SAM 6 μM, 25 nM enzyme
T1 sequence (Q7Z5W3 1-292): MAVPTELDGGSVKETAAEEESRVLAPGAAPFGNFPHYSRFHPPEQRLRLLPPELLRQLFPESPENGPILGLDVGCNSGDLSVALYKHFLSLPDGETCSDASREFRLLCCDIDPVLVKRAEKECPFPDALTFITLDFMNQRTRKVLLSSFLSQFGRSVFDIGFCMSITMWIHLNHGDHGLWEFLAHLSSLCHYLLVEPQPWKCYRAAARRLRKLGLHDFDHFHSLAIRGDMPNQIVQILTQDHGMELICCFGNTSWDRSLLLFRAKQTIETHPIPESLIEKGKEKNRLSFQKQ
Summary of the method: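 25 nM enzyme preincubated 10 min at room temperature with compound (1% DMSO) in 25 mM Tris pH 8.0, 10 mM DTT, 1 mM EDTA, 0.03% BSA. Reaction started with 0.2 μM mini-helix plus 6 μM SAM, run 1 h at 37 °C, quenched with TCA; SAH product quantified by RapidFire MS against isotopic SAH standards.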

BCDIN3D [2] = biological target: T1, BCDIN3D; experiment: BCDIN3D InCellPulse thermal stability assay in transfected A549 cells; type: cell-based; conditions: transiently transfected A549 cells, heat shock 58° C. 15 min
Summary of the method: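 A549 cells transiently expressing BCDIN3D N-terminally fused to ePL ProLabel tag, 1500 cells/well, pre-incubated 1 h at 37 °C with compound (0.6% DMSO). Heat shock 58 °C for 15 min; remaining soluble fusion detected by split β-galactosidase complementation luminescence.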

| SMILES | IC50 (BCDIN3D [1]) | IC50 (BCDIN3D [2]) |
| --- | --- | --- |
| Cn1ncc2c(NC(C)(C)C)nc(NC[C@@H](N)c3ccccc3)nc21 [Compound 4.54, 6-N-[(2S)-2-amino-2-phenylethyl]-4-N-tert-butyl-1-methylpyrazolo[3,4-d]pyrimidine-4,6-diamine] | 1970 nM | 3110 nM |
| [2H]C([2H])([2H])n1ncc2c(NC(C)(C)C)nc(NC[C@H](N)c3ccccc3)nc21 [Compound 4.55, N6-[(2R)-2-amino-2-phenyl-ethyl]-N4-tert-butyl-1-(trideuteriomethyl)pyrazolo[3,4-d]pyrimidine-4,6-diamine] | 133 nM | 152 nM |
| Cn1ncc2c(NCC3CC3)nc(NCC(N)c3ccccc3)nc21 (stereo not shown) [Compound 4.56, 6-N-(2-amino-2-phenylethyl)-4-N-(cyclopropylmethyl)-1-methylpyrazolo[3,4-d]pyrimidine-4,6-diamine] | 3470 nM | 7270 nM |
| Cn1ncc2c(NC(C)(C)C3CC3)nc(NC[C@H](N)c3ccccc3)nc21 [Compound 4.59, N6-[(2R)-2-amino-2-phenyl-ethyl]-N4-(1-cyclopropyl-1-methyl-ethyl)-1-methyl-pyrazolo[3,4-d]pyrimidine-4,6-diamine] | 109 nM | 77.5 nM |
| Cn1ncc2c(NCC3CC34CC4)nc(NC[C@H](N)c3ccccc3)nc21 (stereo partly drawn) [Compound 4.60, N6-[(2R)-2-amino-2-phenyl-ethyl]-1-methyl-N4-(spiro[2.2]pentan-2-ylmethyl)pyrazolo[3,4-d]pyrimidine-4,6-diamine] | 6.1 nM | 44.4 nM |
| Cn1ncc2c(NCC3CC3(C)C)nc(NC[C@H](N)c3ccccc3)nc21 (stereo partly drawn) [Compound 4.62, N6-[(2R)-2-amino-2-phenyl-ethyl]-N4-[(2,2-dimethylcyclopropyl)methyl]-1-methyl-pyrazolo[3,4-d]pyrimidine-4,6-diamine] | 6.1 nM | 112 nM |
| Cn1ncc2c(NC34CC(F)(C3)C4)nc(NCC(N)c3ccccc3)nc21 (stereo not shown) [Compound 4.65, N6-(2-amino-2-phenylethyl)-N4-{3-fluorobicyclo[1.1.1]pentan-1-yl}-1-methyl-1H-pyrazolo[3,4-d]pyrimidine-4,6-diamine] | 230 nM | 616 nM |
| Cn1ncc2c(NC34CC(F)(C3)C4)nc(NC[C@H](N)c3ccccc3)nc21 [Compound 4.67, N6-[(2R)-2-amino-2-phenyl-ethyl]-N4-(3-fluoro-1-bicyclo[1.1.1]pentanyl)-1-methyl-pyrazolo[3,4-d]pyrimidine-4,6-diamine] | 179 nM | 168 nM |
| Cn1ncc2c(NC3CCOCC3)nc(NC[C@H](N)c3ccccc3)nc21 [Compound 4.69, N6-[(2R)-2-amino-2-phenyl-ethyl]-1-methyl-N4-tetrahydropyran-4-yl-pyrazolo[3,4-d]pyrimidine-4,6-diamine] | 851 nM | 3140 nM |
| Cn1ncc2c(NCC(F)F)nc(NC[C@H](N)c3ccccc3)nc21 [Compound 4.73, N6-[(2R)-2-amino-2-phenyl-ethyl]-N4-(2,2-difluoroethyl)-1-methyl-pyrazolo[3,4-d]pyrimidine-4,6-diamine] | 528 nM | 412 nM |
| Cn1ncc2c(NC(C)(C)C(F)(F)F)nc(NC[C@H](N)c3ccccc3)nc21 [Compound 4.75, N6-[(2R)-2-amino-2-phenyl-ethyl]-1-methyl-N4-(2,2,2-trifluoro-1,1-dimethyl-ethyl)pyrazolo[3,4-d]pyrimidine-4,6-diamine] | 240 nM | 711 nM |
| C[C@H](Nc1nc(NC[C@H](N)c2ccccc2)nc2c1cnn2C)C(F)(F)F [Compound 4.76, N6-[(2R)-2-amino-2-phenyl-ethyl]-1-methyl-N4-[(1S)-2,2,2-trifluoro-1-methyl-ethyl]pyrazolo[3,4-d]pyrimidine-4,6-diamine] | 136 nM | 232 nM |
| Cn1ncc2c(NC3(C)CC3)nc(NC[C@H](N)c3ccccc3)nc21 [Compound 4.77, N6-[(2R)-2-amino-2-phenyl-ethyl]-1-methyl-N4-(1-methylcyclopropyl)pyrazolo[3,4-d]pyrimidine-4,6-diamine] | 2770 nM | 1970 nM |

Further compounds by falling IC50 (BCDIN3D [1]), results first:

| IC50 (BCDIN3D [1]) | IC50 (BCDIN3D [2]) | SMILES |
| --- | --- | --- |
| 6450 nM | 2720 nM | Cn1ncc2c(NC(C3CC3)C3CC3)nc(NCC(N)c3ccccc3)nc21 (stereo not shown) [Compound 4.57, N6-(2-amino-2-phenyl-ethyl)-N4-(dicyclopropylmethyl)-1-methyl-pyrazolo[3,4-d]pyrimidine-4,6-diamine] |
| 1400 nM | 1200 nM | Cn1ncc2c(NC(C)(C)CO)nc(NC[C@H](N)c3ccccc3)nc21 [Compound 4.71, 2-[[6-[[(2R)-2-amino-2-phenyl-ethyl]amino]-1-methyl-pyrazolo[3,4-d]pyrimidin-4-yl]amino]-2-methyl-propan-1-ol] |
| 1140 nM | 3240 nM | Cn1ncc2c(NC3CCC(F)(F)CC3)nc(NCC(N)c3ccccc3)nc21 (stereo not shown) [Compound 4.68, 6-N-(2-amino-2-phenylethyl)-4-N-(4,4-difluorocyclohexyl)-1-methylpyrazolo[3,4-d]pyrimidine-4,6-diamine] |
| 769 nM | 379 nM | Cn1ncc2c(NC3(C(F)(F)F)CC3)nc(NC[C@H](N)c3ccccc3)nc21 [Compound 4.78, N6-[(2R)-2-amino-2-phenyl-ethyl]-1-methyl-N4-[1-(trifluoromethyl)cyclopropyl]pyrazolo[3,4-d]pyrimidine-4,6-diamine] |
| 266 nM | 378 nM | Cn1ncc2c(NCC3CC3(F)F)nc(NC[C@H](N)c3ccccc3)nc21 (stereo partly drawn) [Compound 4.61, N6-[(2R)-2-amino-2-phenyl-ethyl]-N4-[(2,2-difluorocyclopropyl)methyl]-1-methyl-pyrazolo[3,4-d]pyrimidine-4,6-diamine] |
| 252 nM | 341 nM | Cn1ncc2c(NCC(C)(F)F)nc(NC[C@H](N)c3ccccc3)nc21 [Compound 4.74, N6-[(2R)-2-amino-2-phenyl-ethyl]-N4-(2,2-difluoropropyl)-1-methyl-pyrazolo[3,4-d]pyrimidine-4,6-diamine] |
| 202 nM | 949 nM | Cn1ncc2c(NC34CC(C#N)(C3)C4)nc(NCC(N)c3ccccc3)nc21 (stereo not shown) [Compound 4.64, 3-[[6-[(2-amino-2-phenylethyl)amino]-1-methylpyrazolo[3,4-d]pyrimidin-4-yl]amino]bicyclo[1.1.1]pentane-1-carbonitrile] |
| 154 nM | 318 nM | Cn1ncc2c(NCC(C)(C)C)nc(NC[C@H](N)c3ccccc3)nc21 [Compound 4.72, N6-[(2R)-2-amino-2-phenyl-ethyl]-N4-(2,2-dimethylpropyl)-1-methyl-pyrazolo[3,4-d]pyrimidine-4,6-diamine] |
| 128 nM | 137 nM | Cn1ncc2c(NC34CC(C3)C4)nc(NC[C@H](N)c3ccccc3)nc21 [Compound 4.66, N6-[(2R)-2-amino-2-phenyl-ethyl]-N4-(3-bicyclo[1.1.1]pentanyl)-1-methyl-pyrazolo[3,4-d]pyrimidine-4,6-diamine] |
| 70.4 nM | 184 nM | CC1CC1CNc1nc(NC[C@H](N)c2ccccc2)nc2c1cnn2C (stereo partly drawn) [Compound 4.58, N6-[(2R)-2-amino-2-phenyl-ethyl]-1-methyl-N4-[(2-methylcyclopropyl)methyl]pyrazolo[3,4-d]pyrimidine-4,6-diamine] |
